Laboratory results published in patent US20220135622A1, “ANTIBACTERIAL PEPTIDES AND METHODS OF USE” (priority 2019, published 2022).
In brackets after ≈: the same amount, converted by molar mass. Square brackets hold non-standard residues; d marks the D form. Peptide text beside a SMILES is read from it. Bip = N[C@@H](Cc1ccc(-c2ccccc2)cc1)C(=O)O; aThr = C[C@H](O)[C@H](N)C(=O)O; hSer = N[C@@H](CCO)C(=O)O; NMeA = CN[C@@H](C)C(=O)O; Orn = NCCC[C@H](N)C(=O)O; Dap = NC[C@H](N)C(=O)O

Tests used:
K. pneumoniae = type: cell-based, Klebsiella pneumoniae; conditions: Table 8
In short: (§1)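 MHB II cation-adjusted, peptides 2-fold series (top 400-800 μM final), inoculum OD600 ~0.0002, EDTA 0.5 mM (E. coli) / 0.125 mM (USA300) final. 37° C, 20 h, OD600 read-out.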

E. coli ΔwaaD + vect. = test: MIC assay, E. coli ΔwaaD + vect.; type: cell-based, Escherichia coli; conditions: Table 7
Procedure: (§2) Bacterial growth conditions. LB or Mueller Hinton II cation-adjusted broth (MHB II, BBL 212322) was prepared according to manufacturer's instructions and supplemented with arabinose at 0.02% for overnight growth or at indicated concentrations in the description of the figures. Bacterial cultures were grown at 37° C. When appropriate, media was supplemented with kanamycin (50 μg/mL), carbenicillin (50 μg/mL), chloramphenicol (12.5 or 25 μg/mL), hygromycin (200 μg/mL), and/or gentamicin (10 μg/mL).
(§3) Peptide sensitivity and MIC assays. Lyophilized peptides (Smartox Biotechnology, CPC Scientific. ABclonal) were solubilized to 10 mM in Tris buffer, pH 8, prior to making a 2-fold dilution series in MHBII cation adjusted broth with highest final assay concentration of 400-800 μM. Bacteria were grown to log phase and added to final OD600˜0.001. The final EDTA concentration was 0.5 mM for E. coli strains and 0.125 mM for USA300. The final volume of 10 μL/well in a 384 well black, clear bottom plate (Corning) was spun <1 min at <250×g and then incubated at 37° C. After 4 h, an equal volume (10 μL) of BacTiter-Glo™ (Promega) was added to each well and luminescence was read after 5 min on an EnVision plate reader (PerkinElmer). To measure the minimal inhibitory concentrations (MICs), bacteria from fresh overnight plates or log phase cultures were diluted with or without EDTA and peptides as described above to final OD600˜0.0002. Plates were incubated at 37° C. for 20 h before measuring OD600 with an EnVision plate reader.

E. coli ΔwaaD MCR-1 = test: MIC assay, E. coli ΔwaaD MCR-1; type: cell-based, Escherichia coli; conditions: Table 7
Procedure: as §2, §3

E. coli BW25113 = type: cell-based, Escherichia coli; conditions: Table 8
In short: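 Growth inhibition: log-phase cells (OD600 ~0.001), peptides in 2-fold series up to 400–800 μM in MHB II, EDTA 0.5 mM (E. coli) or 0.125 mM (USA300), 4 h at 37 °C, ATP luminescence readout. MICs: inoculum at OD600 ~0.0002, with or without EDTA, 20 h at 37 °C, OD600 endpoint.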

S. aureus USA300 = test: MIC assay, S. aureus USA300; type: cell-based, Staphylococcus aureus; conditions: Table 7
Procedure: as §2, §3

E. coli imp4213 = test: MIC assay, E. coli imp4213; type: cell-based, Escherichia coli; conditions: Table 7
Procedure: as §2, §3

A. baumannii = type: cell-based, Acinetobacter baumannii; conditions: Table 8
In short: as §1

P. aeruginosa = type: cell-based, Pseudomonas aeruginosa; conditions: Table 8
In short: as §1

Compound	MIC K. pneumoniae (K. pneumoniae)	MIC E. coli ΔwaaD + vect. (E. coli ΔwaaD + vect.) [µM]	MIC E coli ΔwaaD − MCR1 (E. coli ΔwaaD MCR-1) [µM]	MIC E. coli BW25113 (E. coli BW25113)	MIC S. aureus USA300 (S. aureus USA300) [µM]	MIC E. coli imp4213 (E. coli imp4213) [µM]	MIC A. baumannii (A. baumannii) [µM]	MIC R. aeruginosa (P. aeruginosa) [µM]
CSCC[C@H](NC(=O)[C@@H]1CCCN1C(=O)[C@H](Cc1ccc(O)cc1)NC(C)=O)C(=O)N[C@H](C(=O)N[C@@H](C)C(=O)N[C@@H](CCCNC(=N)N)C(=O)N[C@@H](CCCNC(=N)N)C(=O)N[C@@H](Cc1ccccc1)C(=O)N[C@@H](CC(C)C)C(=O)N[C@@H](CCC(=O)O)C(=O)N[C@@H](CCCCN)C(=O)N[C@@H](Cc1c[nH]c2ccccc12)C(=O)NCC(=O)N[C@@H](CC(C)C)C(=O)N[C@@H](CC(C)C)C(=O)N[C@@H](CCCNC(=N)N)C(N)=O)[C@H](C)O [compound 48] (Ac-YPM[aThr]ARRFLEKWGLLR-NH2)	400 µM (≈ 831 µg/mL)	100	400 (≈ 831 µg/mL)	400 µM (≈ 831 µg/mL)	>400	17.5 (≈ 36.4 µg/mL)	200 (≈ 416 µg/mL)	400 (≈ 831 µg/mL)
CSCC[C@H](NC(=O)[C@@H]1CCCN1C(=O)[C@H](Cc1ccc(O)cc1)NC(C)=O)C(=O)N[C@@H](CN)C(=O)N[C@@H](C)C(=O)N[C@@H](CCCNC(=N)N)C(=O)N[C@@H](CCCNC(=N)N)C(=O)N[C@@H](Cc1ccccc1)C(=O)N[C@@H](CC(C)C)C(=O)N[C@@H](CCC(=O)O)C(=O)N[C@@H](CCCCN)C(=O)N[C@@H](Cc1c[nH]c2ccccc12)C(=O)NCC(=O)N[C@@H](CC(C)C)C(=O)N[C@@H](CC(C)C)C(=O)N[C@@H](CCCNC(=N)N)C(N)=O [compound 51] (Ac-YPM[Dap]ARRFLEKWGLLR-NH2)	200 µM (≈ 413 µg/mL)	100	200 (≈ 413 µg/mL)	100 µM (≈ 206 µg/mL)	>400	12.5 (≈ 25.8 µg/mL)	100 (≈ 206 µg/mL)	400 (≈ 825 µg/mL)
CSCC[C@H](NC(=O)[C@@H]1CCCN1C(=O)[C@H](Cc1ccc(O)cc1)NC(C)=O)C(=O)N[C@H](C(=O)N[C@@H](C)C(=O)N[C@@H](CCCN)C(=O)N[C@@H](CCCNC(=N)N)C(=O)N[C@@H](Cc1ccccc1)C(=O)N[C@@H](CC(C)C)C(=O)N[C@@H](CCC(=O)O)C(=O)N[C@@H](CCCCN)C(=O)N[C@@H](Cc1c[nH]c2ccccc12)C(=O)NCC(=O)N[C@@H](CC(C)C)C(=O)N[C@@H](CC(C)C)C(=O)N[C@@H](CCCNC(=N)N)C(N)=O)[C@@H](C)O [compound 53] (Ac-YPMTA[Orn]RFLEKWGLLR-NH2)	800 µM (≈ 1630 µg/mL)	100	400 (≈ 815 µg/mL)	400 µM (≈ 815 µg/mL)	>400	–	400 (≈ 815 µg/mL)	400 (≈ 815 µg/mL)
CSCC[C@H](NC(=O)[C@@H]1CCCN1C(=O)[C@H](Cc1ccc(O)cc1)NC(C)=O)C(=O)N[C@H](C(=O)N[C@@H](C)C(=O)N[C@@H](CCCNC(=N)N)C(=O)N[C@@H](CCCNC(=N)N)C(=O)N[C@@H](Cc1ccc(-c2ccccc2)cc1)C(=O)N[C@@H](CC(C)C)C(=O)N[C@@H](CCC(=O)O)C(=O)N[C@@H](CCCCN)C(=O)N[C@@H](Cc1c[nH]c2ccccc12)C(=O)NCC(=O)N[C@@H](CC(C)C)C(=O)N[C@@H](CC(C)C)C(=O)N[C@@H](CCCNC(=N)N)C(N)=O)[C@@H](C)O [compound 55] (Ac-YPMTARR[Bip]LEKWGLLR-NH2)	400 µM (≈ 862 µg/mL)	25	50 (≈ 108 µg/mL)	100 µM (≈ 215 µg/mL)	>400	6.25 (≈ 13.5 µg/mL)	25 (≈ 53.9 µg/mL)	>800
CSCC[C@H](NC(=O)[C@@H]1CCCN1C(=O)[C@H](Cc1ccc(O)cc1)NC(C)=O)C(=O)N[C@@H](CCO)C(=O)N[C@@H](C)C(=O)N[C@@H](CCCNC(=N)N)C(=O)N[C@@H](CCCNC(=N)N)C(=O)N[C@@H](Cc1ccccc1)C(=O)N[C@@H](CC(C)C)C(=O)N[C@@H](CCC(=O)O)C(=O)N[C@@H](CCCCN)C(=O)N[C@@H](Cc1c[nH]c2ccccc12)C(=O)NCC(=O)N[C@@H](CC(C)C)C(=O)N[C@@H](CC(C)C)C(=O)N[C@@H](CCCNC(=N)N)C(N)=O [compound 63] (Ac-YPM[hSer]ARRFLEKWGLLR-NH2)	200 µM (≈ 416 µg/mL)	<6.25	200 (≈ 416 µg/mL)	400/200	–	–	200 (≈ 416 µg/mL)	400 (≈ 831 µg/mL)
CSCC[C@H](NC(=O)[C@@H]1CCCN1C(=O)[C@H](Cc1ccc(O)cc1)NC(C)=O)C(=O)N[C@H](C(=O)N(C)[C@@H](C)C(=O)N[C@@H](CCCNC(=N)N)C(=O)N[C@@H](CCCNC(=N)N)C(=O)N[C@@H](Cc1ccccc1)C(=O)N[C@@H](CC(C)C)C(=O)N[C@@H](CCC(=O)O)C(=O)N[C@@H](CCCCN)C(=O)N[C@@H](Cc1c[nH]c2ccccc12)C(=O)NCC(=O)N[C@@H](CC(C)C)C(=O)N[C@@H](CC(C)C)C(=O)N[C@@H](CCCNC(=N)N)C(N)=O)[C@@H](C)O [compound 64] (Ac-YPMT[NMeA]RRFLEKWGLLR-NH2)	None/400	<6.25	400 (≈ 837 µg/mL)	400 µM (≈ 837 µg/mL)	–	12.5 (≈ 26.2 µg/mL)	400 (≈ 837 µg/mL)	400 (≈ 837 µg/mL)
